Assays:
[1] = in vivo
Protocol: The ratio of the urinary calcium value/urinary creatine value was compared before beginning administration and in the weeks of observation. The urinary calcium was measured at the start, after 12 weeks, after 24 weeks, after 48 weeks, and after 72 weeks.

[2] = in vivo; remark: listed apart in the source
Protocol: The Lumbar spine bone mineral density and occurrence of bone fractures were checked as bone assessments. For the Lumbar spine bone mineral density, the bone density of the second to fourth lumbar spine was measured at the start and every six months thereafter using dual-energy x-ray absorptiometry (DXA). For the frequency of bone fractures, x-rays were taken from the front and side of the fourth thoracic to the fifth lumbar spine at the start and every six months thereafter, and new vertebral fractures were assessed by comparison of the roentgen films at the start and at each point in time thereafter using the method of Genant et al. (Non-patent Reference 14) as a reference. In locations other than the vertebrae, fractures were evaluated by checking by roentgen films. Blood samples were also taken from all patients at the beginning and during administration, and the general laboratory test values, including the calcium concentration, were measured. The administration period in high-risk patients (DXA and new vertebral fractures were assessed collectively at the center; fractures of other than vertebrae were assessed by the investigator based on the roentgen films) was 85.1±20.8 weeks in the 5 unit group and 83.7±19.8 weeks in the 100 unit group. […] The administration period in low-risk patients was 72.7±19.4 weeks in the 5 unit group and 88.3±21.3 weeks in the 100 unit group.

[3] = test system: high-risk patients diagnosed with primary osteoporosis; experiment: Working Example 2: worsening vertebral fractures; type: in vivo, human; conditions: 200 units weekly, FAS
Description: The vertebral fractures in the present invention also include both new fractures and worsening fractures. […] New and worsening [fractures] can be classified by the grade increase pattern according to the criteria of Genant. Concretely speaking, a fracture is diagnosed as a new fracture when a change is found from grade 0 to grade 1, 2, or 3. It can be regarded as a worsening fracture when a change is found from grade 1 to grade 2 or 3 or from grade 2 to grade 3. The vertebral height was measured according to the method of Inoue et al. (Non-patent reference 35) and the method of Hayashi et al. (Non-patent Reference 36) to accurately assess the changes in grade.
(§1) The incidence of bone fractures was checked by frontal and lateral x-rays of the fourth thoracic to the fourth lumbar spine taken at the start and every 24 weeks thereafter.
The efficacy of the test drug on worsening bone fractures was studied.

[4] = test system: high-risk patients diagnosed with primary osteoporosis; experiment: Working Example 2: CT geometry of the proximal femur (neck, trochanter, shaft); type: in vivo, human; conditions: 200 units weekly
Protocol: For the CT geometry, the proximal part of the femur was measured at the start and after 48 and 72 weeks using multislice CT scan.
The effects of the test drug on three parts of the femur (neck of the femur, trochanter, and shaft of the femur) were studied using ordinary CT scans.

[5] = test system: osteoporosis patients having normal renal function, mild or moderate renal dysfunction; conditions: in vivo
Description: The incidence of adverse events was studied after administering the test drug to the a group of osteoporosis patients having normal renal function, a group of osteoporosis patients having mild renal dysfunction, and a group of osteoporosis patients having moderate renal dysfunction.

[6] = test system: high-risk patients diagnosed with primary osteoporosis; experiment: Working Example 2: new (incl. multiple, new+worsening) vertebral fractures by x-ray, test drug 200 units once a week for 72 weeks vs placebo; type: in vivo, human
Description: The above patients also took two tablets of a calcium agent once a day after dinner. […] The preparation contained precipitated calcium carbonate, magnesium carbonate, cholecalciferol (vitamin D3), and the like as components and is marketed under the trade name New Calcichew (trademark) D3″ (sold by: Daiichi Sankyo Health Care, manufactured and sold by: Nitto Pharmaceutical Industries, Ltd.).
as §1
Here, “multiple vertebral fractures” was defined as two or more new vertebral fractures. When the incidence of multiple vertebral fractures (number of cases) was compared in the test drug group (n=261) and control group (n=281) after 72 weeks of administration, it was 2.1% (6 cases) in the control group and 0.8% (2 cases) in the test drug group.

[7] = 200 units weekly, 72 weeks, No. of fractures: five or more
[8] = 200 units weekly, 72 weeks, No. of fractures: four
[9] = 200 units weekly, 72 weeks, No. of fractures: none
[10] = 200 units weekly, 72 weeks, No. of fractures: one
[11] = 200 units weekly, 72 weeks, No. of fractures: three
[12] = 200 units weekly, 72 weeks, No. of fractures: two
[13] = 200 units weekly, after 72 weeks, n=261
[14] = 200 units weekly, history of Alfacalcidol
[15] = 200 units weekly, history of calcitriol
[16] = 200 units weekly, history of calcium L-aspartate
[17] = 200 units weekly, history of calcium lactate
[18] = 200 units weekly, history of elcatonin
[19] = 200 units weekly, history of menatetrenone
[20] = 200 units weekly, history of raloxifene hydrochloride
[21] = 200 units weekly, patients taking glucocorticoid

Substance: teriparatide acetate
- Average percentage change in the urinary calcium value [1]: 3.2%
- Median percentage change in the urinary calcium value [1]: −14.7%
- Hypercalcemia during the administration period [2]: did not cause hypercalcemia at either dose
- Difference between test drug group and control group after 72 W (%), incidence of worsening fractures [3]: 1.8%
- Worsening fractures: No. with fractures [3]: 1
- Incidence of worsening fractures (%) ([3]; after 24 W): 0.4%
- Incidence of worsening fractures (%) ([3]; after 48 W): 0.4%
- Incidence of worsening fractures (%) ([3]; after 72 W): 0.4%
- Maximum section modulus (SM (Z min)), change from baseline after 48 weeks (%) ([4]; neck of femur): 3.43%
- Maximum section modulus (SM (Z min)), change from baseline after 72 weeks (%) ([4]; neck of femur): 1.87%
- Volume bone mineral density (cortical bone) [vBMD cortical], change from baseline after 48 weeks (%) ([4]; neck of femur): −0.77%
- Volume bone mineral density (cortical bone) [vBMD cortical], change from baseline after 72 weeks (%) ([4]; neck of femur): −1.14%
- Volume bone mineral density (total) [vBMD total], change from baseline after 48 weeks (%) ([4]; neck of femur): 0.92%
- Volume bone mineral density (total) [vBMD total], change from baseline after 72 weeks (%) ([4]; neck of femur): 0.15%
- Maximum section modulus (SM (Z min)), change from baseline after 48 weeks (%) ([4]; shaft of femur): 1.28%
- Maximum section modulus (SM (Z min)), change from baseline after 72 weeks (%) ([4]; shaft of femur): 2.69%
- Volume bone mineral density (cortical bone) [vBMD cortical], change from baseline after 48 weeks (%) ([4]; shaft of femur): 0.59%
- Volume bone mineral density (cortical bone) [vBMD cortical], change from baseline after 72 weeks (%) ([4]; shaft of femur): 0.18%
- Volume bone mineral density (total) [vBMD total], change from baseline after 48 weeks (%) ([4]; shaft of femur): 1.03%
- Volume bone mineral density (total) [vBMD total], change from baseline after 72 weeks (%) ([4]; shaft of femur): 1.25%
- Maximum section modulus (SM (Z min)), change from baseline after 48 weeks (%) ([4]; trochanter): 5.19%
- Maximum section modulus (SM (Z min)), change from baseline after 72 weeks (%) ([4]; trochanter): 3.20%
- Volume bone mineral density (cortical bone) [vBMD cortical], change from baseline after 48 weeks (%) ([4]; trochanter): −0.49%
- Volume bone mineral density (cortical bone) [vBMD cortical], change from baseline after 72 weeks (%) ([4]; trochanter): −1.49%
- Volume bone mineral density (total) [vBMD total], change from baseline after 48 weeks (%) ([4]; trochanter): 1.36%
- Volume bone mineral density (total) [vBMD total], change from baseline after 72 weeks (%) ([4]; trochanter): 0.95%
- Adverse events: point estimate of the difference (PTH200 group vs P group) [5]: 2.0
- Occurrence of new vertebral fractures after 48 weeks ([6]; 200 units weekly, 48 to 72 weeks): no new vertebral fractures occurred after 48 weeks
- New vertebral fractures: Incidence (%) [6, 7]: 0.0%
- New vertebral fractures: No. of subjects [6, 7]: 0
- New vertebral fractures: Incidence (%) [6, 8]: 0.0%
- New vertebral fractures: No. of subjects [6, 8]: 0
- New vertebral fractures: Incidence (%) [6, 9]: 97.3%
- New vertebral fractures: No. of subjects [6, 9]: 254
- New vertebral fractures: Incidence (%) [6, 10]: 1.9%
- New vertebral fractures: No. of subjects [6, 10]: 5
- New vertebral fractures: Incidence (%) [6, 11]: 0.0%
- New vertebral fractures: No. of subjects [6, 11]: 0
- New vertebral fractures: Incidence (%) [6, 12]: 0.8%
- New vertebral fractures: No. of subjects [6, 12]: 2
- Lowering of the risk of vertebral fractures (new+worsening) in comparison to the placebo ([6]; 200 units weekly, after 72 weeks): 78.6%
- Incidence of vertebral fractures (new+worsening) by Kaplan-Meier estimation ([6]; 200 units weekly, after 72 weeks, FAS): 3.5%
- Incidence of multiple vertebral fractures (two or more new vertebral fractures) [6, 13]: 0.8%
- Multiple vertebral fractures, number of cases [6, 13]: 2 cases
- New vertebral fractures: No. with fractures ([6]; 200 units weekly, complication (diabetes): no): 7
- Incidence of new vertebrae fractures (%) ([6]; 200 units weekly, complication (diabetes): no, after 24 W): 2.8%
- Incidence of new vertebrae fractures (%) ([6]; 200 units weekly, complication (diabetes): no, after 48 W): 3.3%
- Incidence of new vertebrae fractures (%) ([6]; 200 units weekly, complication (diabetes): no, after 72 W): 3.3%
- New vertebral fractures: No. with fractures ([6]; 200 units weekly, complication (diabetes): yes): 0
- Incidence of new vertebrae fractures (%) ([6]; 200 units weekly, complication (diabetes): yes, after 24 W): 0.0%
- Incidence of new vertebrae fractures (%) ([6]; 200 units weekly, complication (diabetes): yes, after 48 W): 0.0%
- Incidence of new vertebrae fractures (%) ([6]; 200 units weekly, complication (diabetes): yes, after 72 W): 0.0%
- New vertebral fractures: No. with fractures ([6]; 200 units weekly, complication (hyperlipidemia): no): 4
- Incidence of new vertebrae fractures (%) ([6]; 200 units weekly, complication (hyperlipidemia): no, after 24 W): 2.2%
- Incidence of new vertebrae fractures (%) ([6]; 200 units weekly, complication (hyperlipidemia): no, after 48 W): 3.0%
- Incidence of new vertebrae fractures (%) ([6]; 200 units weekly, complication (hyperlipidemia): no, after 72 W): 3.0%
- New vertebral fractures: No. with fractures ([6]; 200 units weekly, complication (hyperlipidemia): yes): 3
- Incidence of new vertebrae fractures (%) ([6]; 200 units weekly, complication (hyperlipidemia): yes, after 24 W): 3.2%
- Incidence of new vertebrae fractures (%) ([6]; 200 units weekly, complication (hyperlipidemia): yes, after 48 W): 3.2%
- Incidence of new vertebrae fractures (%) ([6]; 200 units weekly, complication (hyperlipidemia): yes, after 72 W): 3.2%
- New vertebral fractures: No. with fractures ([6]; 200 units weekly, complication (hypertension): no): 3
- Incidence of new vertebrae fractures (%) ([6]; 200 units weekly, complication (hypertension): no, after 24 W): 2.1%
- Incidence of new vertebrae fractures (%) ([6]; 200 units weekly, complication (hypertension): no, after 48 W): 3.1%
- Incidence of new vertebrae fractures (%) ([6]; 200 units weekly, complication (hypertension): no, after 72 W): 3.1%
- New vertebral fractures: No. with fractures ([6]; 200 units weekly, complication (hypertension): yes): 4
- Incidence of new vertebrae fractures (%) ([6]; 200 units weekly, complication (hypertension): yes, after 24 W): 3.1%
- Incidence of new vertebrae fractures (%) ([6]; 200 units weekly, complication (hypertension): yes, after 48 W): 3.1%
- Incidence of new vertebrae fractures (%) ([6]; 200 units weekly, complication (hypertension): yes, after 72 W): 3.1%
- Incidence of new vertebral fractures (%) ([6]; 200 units weekly, creatinine clearance abnormal (<80), after 24 W): 2.8%
- Incidence of new vertebral fractures (%) ([6]; 200 units weekly, creatinine clearance abnormal (<80), after 48 W): 3.4%
- Incidence of new vertebral fractures (%) ([6]; 200 units weekly, creatinine clearance abnormal (<80), after 72 W): 3.4%
- New vertebral fractures: No. with fractures ([6]; 200 units weekly, creatinine clearance at start abnormal (<80)): 6
- New vertebral fractures: No. with fractures ([6]; 200 units weekly, creatinine clearance at start normal (≧80)): 0
- Incidence of new vertebral fractures (%) ([6]; 200 units weekly, creatinine clearance normal (≧80), after 24 W): 0.0%
- Incidence of new vertebral fractures (%) ([6]; 200 units weekly, creatinine clearance normal (≧80), after 48 W): 0.0%
- Incidence of new vertebral fractures (%) ([6]; 200 units weekly, creatinine clearance normal (≧80), after 72 W): 0.0%
- New vertebral fractures: no (patients) [6, 14]: 62
- New vertebral fractures: yes (patients) [6, 14]: 1
- New vertebral fractures: no (patients) [6, 15]: 7
- New vertebral fractures: yes (patients) [6, 15]: 1
- New vertebral fractures: no (patients) [6, 16]: 28
- New vertebral fractures: yes (patients) [6, 16]: 1
- New vertebral fractures: no (patients) [6, 17]: 8
- New vertebral fractures: yes (patients) [6, 17]: 0
- New vertebral fractures: no (patients) [6, 18]: 35
- New vertebral fractures: yes (patients) [6, 18]: 2
- New vertebral fractures: no (patients) [6, 19]: 6
- New vertebral fractures: yes (patients) [6, 19]: 0
- New vertebral fractures: no (patients) [6, 20]: 20
- New vertebral fractures: yes (patients) [6, 20]: 0
- Existence of new vertebral fractures, Fracture: no (patients) [6, 21]: 29
- Existence of new vertebral fractures, Fracture: yes (patients) [6, 21]: 0
- New vertebral fractures: No. with fractures ([6]; 200 units weekly, prior osteoporosis treatment (no)): 4
- Incidence of new vertebral fractures (%) ([6]; 200 units weekly, prior osteoporosis treatment (no), after 24 W): 2.4%
- Incidence of new vertebral fractures (%) ([6]; 200 units weekly, prior osteoporosis treatment (no), after 48 W): 3.2%
- Incidence of new vertebral fractures (%) ([6]; 200 units weekly, prior osteoporosis treatment (no), after 72 W): 3.2%
- New vertebral fractures: No. with fractures ([6]; 200 units weekly, prior osteoporosis treatment (yes)): 3
- Incidence of new vertebral fractures (%) ([6]; 200 units weekly, prior osteoporosis treatment (yes), after 24 W): 2.9%
- Incidence of new vertebral fractures (%) ([6]; 200 units weekly, prior osteoporosis treatment (yes), after 48 W): 2.9%
- Incidence of new vertebral fractures (%) ([6]; 200 units weekly, prior osteoporosis treatment (yes), after 72 W): 2.9%
- New vertebral fractures, No. with fractures ([6]; FAS, 72 weeks): 7
- New vertebral fractures, No. with fractures ([6]; time after administration >24 W-≦48 W): 2
- New vertebral fractures, No. with fractures ([6]; time after administration >48 W-≦72 W): 0
- New vertebral fractures, No. with fractures ([6]; time after administration ≦24 W): 6

Reference: patent publication US20120252729A1, “PTH-CONTAINING THERAPEUTIC/PROPHYLACTIC AGENT FOR OSTEOPOROSIS, CHARACTERIZED IN THAT PTH IS ADMINISTERED ONCE A WEEK IN A UNIT DOSE OF 100 TO 200 UNITS” (ASAHI KASEI PHARMA CORPORATION, priority 2009, published 2012)
